Results from US11844785B2, “3-(phenyl)-N-(4-phenoxybenzyl)-1,2,4-oxadiazole-5-carboxamide compounds for the management of CFTR protein mediated diseases” (Emory University, priority 2015, dated 2023).
Read-outs that look alike come from different tables or passages of the source. Blank lines part the entries; values can stand above or below the compound they belong to.

Experiments:
mCFTR = mCFTR (Mus musculus, UniProt P26361); conditions: cited from earlier work
hCFTR = hCFTR (Homo sapiens, UniProt P13569); conditions: cited from earlier work
hCFTR, sequence (P13569 whole entry): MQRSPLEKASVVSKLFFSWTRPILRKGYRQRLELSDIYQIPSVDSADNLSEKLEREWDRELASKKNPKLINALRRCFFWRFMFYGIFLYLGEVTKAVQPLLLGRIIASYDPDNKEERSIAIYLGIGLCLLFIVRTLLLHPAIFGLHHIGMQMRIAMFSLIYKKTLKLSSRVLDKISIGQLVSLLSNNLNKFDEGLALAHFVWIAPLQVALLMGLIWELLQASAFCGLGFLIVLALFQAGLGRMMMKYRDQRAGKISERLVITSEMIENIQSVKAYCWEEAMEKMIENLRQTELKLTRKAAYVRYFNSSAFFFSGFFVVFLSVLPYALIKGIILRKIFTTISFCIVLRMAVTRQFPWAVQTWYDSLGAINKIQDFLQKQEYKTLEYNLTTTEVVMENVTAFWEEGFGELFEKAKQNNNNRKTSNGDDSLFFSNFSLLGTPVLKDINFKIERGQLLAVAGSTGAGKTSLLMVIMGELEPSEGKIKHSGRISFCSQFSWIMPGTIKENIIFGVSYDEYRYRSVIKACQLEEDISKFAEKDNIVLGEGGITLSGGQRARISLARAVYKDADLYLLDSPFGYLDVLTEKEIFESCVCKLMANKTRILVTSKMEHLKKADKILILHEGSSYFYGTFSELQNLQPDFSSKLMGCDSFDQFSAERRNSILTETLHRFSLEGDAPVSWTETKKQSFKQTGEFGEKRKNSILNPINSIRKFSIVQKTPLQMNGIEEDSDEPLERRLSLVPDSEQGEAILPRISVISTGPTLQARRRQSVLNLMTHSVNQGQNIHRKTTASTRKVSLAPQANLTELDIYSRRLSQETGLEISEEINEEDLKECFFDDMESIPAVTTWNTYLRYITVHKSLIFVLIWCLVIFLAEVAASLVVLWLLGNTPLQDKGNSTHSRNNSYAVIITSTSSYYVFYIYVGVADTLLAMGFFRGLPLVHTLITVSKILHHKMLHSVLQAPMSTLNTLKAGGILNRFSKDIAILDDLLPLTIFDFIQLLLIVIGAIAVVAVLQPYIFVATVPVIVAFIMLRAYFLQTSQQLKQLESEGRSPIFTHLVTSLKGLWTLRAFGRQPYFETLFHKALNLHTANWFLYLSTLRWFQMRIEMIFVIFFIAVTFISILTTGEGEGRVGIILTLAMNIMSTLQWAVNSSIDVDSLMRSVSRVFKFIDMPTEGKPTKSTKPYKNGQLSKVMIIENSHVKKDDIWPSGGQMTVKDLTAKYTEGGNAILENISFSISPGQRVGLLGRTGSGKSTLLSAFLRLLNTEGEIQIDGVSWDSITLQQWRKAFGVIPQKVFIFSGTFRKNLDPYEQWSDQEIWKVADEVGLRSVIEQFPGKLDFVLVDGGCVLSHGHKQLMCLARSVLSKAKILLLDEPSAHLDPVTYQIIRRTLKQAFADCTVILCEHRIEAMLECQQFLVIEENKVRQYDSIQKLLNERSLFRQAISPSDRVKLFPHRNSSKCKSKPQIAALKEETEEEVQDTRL

[1] = target: T1, human CFTR with a R352A mutation (Homo sapiens, UniProt P13569, R352A); assay: Two-electrode voltage clamp (TEVC) on Xenopus oocytes expressing R352A-hCFTR; type: cell-based; conditions: FIG. 2B
T1 construct: expressed in transfected cells; host or cells: Xenopus laevis oocytes injected with cRNA; mutant made by Quikchange site-directed mutagenesis of hCFTR/pGEMHE
T1 sequence (P13569 whole entry R352A): as the sequence (P13569 whole entry) above, with R352A counted along it
Text: (§1) In order to identify compounds that potentiate F508del-hCFTR expressed in Xenopus oocytes, the effects of IOWH-032 on WT, R352A, and F508del-hCFTR were studied using the two-electrode voltage clamp (TEVC) technique. […] See Drumm et al. Chloride conductance expressed by delta F508 and other mutant CFTRs in Xenopus oocytes. Science, 1991, 254(5039): 1797-1799. Extracellular exposure to IOWH-032 potentiated WT and F508del-hCFTR channels.
(§2) Human CFTR cRNAs used in electrophysiology experiments were prepared from constructs encoding WT-hCFTR in the pGEMHE vector (hCFTR/pGEMHE kindly provided by Dr. D. Gadsby, Rockefeller University). The mutants of hCFTR used in this study were prepared using site-directed mutagenesis with the Quikchange protocol (Stratagene, La Jolla, CA) and mutant constructs were verified by sequencing across the entire open reading frame before use. […]
(§3) Standard two-electrode voltage clamp (TEVC) techniques were used to study the effects of chemicals with application of reagents to the extracellular bath. […] Electrode resistances measured 0.5-1.4 MΩ when filled with 3 M KCl and measured in standard ND96 bath solution that contained (in mM): 96 NaCl, 2 KCl, 1 MgCl2, and 5 HEPES (pH 7.5). […]

F508del-hCFTR = target: T2, F508del-hCFTR (Homo sapiens, UniProt P13569, DEL508-508); assay: Two-electrode voltage clamp (TEVC) on Xenopus oocytes expressing F508del-hCFTR; type: cell-based; conditions: FIG. 2C
T2 construct: expressed in transfected cells; host or cells: Xenopus laevis oocytes injected with cRNA; mutant made by Quikchange site-directed mutagenesis of hCFTR/pGEMHE
T2 sequence (P13569 with tags, fused parts or gaps DEL508-508): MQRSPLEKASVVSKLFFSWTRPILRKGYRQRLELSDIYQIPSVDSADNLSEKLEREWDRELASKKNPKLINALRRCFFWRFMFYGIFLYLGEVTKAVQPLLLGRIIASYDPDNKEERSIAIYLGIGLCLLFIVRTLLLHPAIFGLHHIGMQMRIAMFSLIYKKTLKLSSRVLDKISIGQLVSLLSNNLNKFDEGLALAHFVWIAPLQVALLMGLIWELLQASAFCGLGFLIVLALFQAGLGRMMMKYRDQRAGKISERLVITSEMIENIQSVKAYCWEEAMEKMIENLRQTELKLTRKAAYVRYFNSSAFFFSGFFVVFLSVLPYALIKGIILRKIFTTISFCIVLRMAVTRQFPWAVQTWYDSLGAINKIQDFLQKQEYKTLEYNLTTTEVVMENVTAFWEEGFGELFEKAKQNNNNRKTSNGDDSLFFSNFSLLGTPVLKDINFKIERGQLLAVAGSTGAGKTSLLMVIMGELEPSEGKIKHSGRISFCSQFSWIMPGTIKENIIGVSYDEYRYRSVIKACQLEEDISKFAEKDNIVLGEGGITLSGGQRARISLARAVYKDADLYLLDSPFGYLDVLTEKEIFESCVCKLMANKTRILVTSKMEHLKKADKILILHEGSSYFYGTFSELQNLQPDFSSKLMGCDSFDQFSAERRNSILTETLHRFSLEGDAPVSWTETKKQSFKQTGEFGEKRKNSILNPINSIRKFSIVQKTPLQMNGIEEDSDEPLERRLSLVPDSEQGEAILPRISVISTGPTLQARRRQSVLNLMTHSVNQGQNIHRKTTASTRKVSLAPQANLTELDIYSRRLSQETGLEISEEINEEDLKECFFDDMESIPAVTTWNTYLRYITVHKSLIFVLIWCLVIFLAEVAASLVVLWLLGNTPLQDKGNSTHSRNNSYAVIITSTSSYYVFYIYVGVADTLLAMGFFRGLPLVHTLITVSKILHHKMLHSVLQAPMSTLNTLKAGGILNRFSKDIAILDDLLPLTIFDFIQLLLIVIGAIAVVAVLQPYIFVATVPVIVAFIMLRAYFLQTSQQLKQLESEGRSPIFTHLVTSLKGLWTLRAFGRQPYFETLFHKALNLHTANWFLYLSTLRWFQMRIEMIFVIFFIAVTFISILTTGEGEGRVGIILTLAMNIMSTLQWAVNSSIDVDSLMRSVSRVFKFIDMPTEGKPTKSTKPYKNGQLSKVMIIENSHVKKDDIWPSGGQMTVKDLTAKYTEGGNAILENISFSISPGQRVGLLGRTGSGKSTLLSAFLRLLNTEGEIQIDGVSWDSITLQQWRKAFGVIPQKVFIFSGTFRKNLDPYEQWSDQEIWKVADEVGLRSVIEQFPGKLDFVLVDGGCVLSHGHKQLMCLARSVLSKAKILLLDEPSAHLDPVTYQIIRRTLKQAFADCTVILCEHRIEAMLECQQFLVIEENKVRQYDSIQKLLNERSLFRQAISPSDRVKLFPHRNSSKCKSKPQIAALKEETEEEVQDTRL
Text: as §1, §2, §3

[2] = target: T3, wildtype human CFTR (WT-hCFTR) (Homo sapiens, UniProt P13569); assay: Two-electrode voltage clamp (TEVC) on Xenopus oocytes expressing WT-hCFTR; type: cell-based; conditions: for Kd: FIG. 2A
T3 construct: expressed in transfected cells; host or cells: Xenopus laevis oocytes injected with cRNA (hCFTR/pGEMHE, gift of D. Gadsby)
T3 sequence (P13569 whole entry): as the sequence (P13569 whole entry) above
Text: as §1
Human CFTR cRNAs used in electrophysiology experiments were prepared from constructs encoding WT-hCFTR in the pGEMHE vector (hCFTR/pGEMHE kindly provided by Dr. D. Gadsby, Rockefeller University). The mutants of hCFTR used in this study were prepared using site-directed mutagenesis with the Quikchange protocol (Stratagene, La Jolla, CA) and mutant constructs were verified by sequencing across the entire open reading frame before use. Xenopus laevis oocytes were injected with 0.4-10 ng of CFTR cRNAs, and were incubated at 17° C. in modified Liebovitz's L-15 media with the addition of HEPES (pH 7.5), penicillin, and streptomycin. Recordings were made typically 24-96 hours after the injection of cRNAs.
Standard two-electrode voltage clamp (TEVC) techniques were used to study the effects of chemicals with application of reagents to the extracellular bath. Each oocyte was injected with CFTR cRNA along with cRNA encoding the beta2-adrenergic receptor (β2AR). Electrode resistances measured 0.5-1.4 MΩ when filled with 3 M KCl and measured in standard ND96 bath solution that contained (in mM): 96 NaCl, 2 KCl, 1 MgCl2, and 5 HEPES (pH 7.5). CFTR channels were activated by exposure to 10 μM isoproterenol (ISO) in ND 96 and alternatively assayed in the presence or absence of different concentrations of compounds in the bath solution, typically in the continuing presence of ISO. Currents were acquired with an Axoclamp 900A amplifier and Clampex 10.2 software, and current data were digitized at 2 kHz.

[3] = extracellular exposure, TEVC, Xenopus oocytes

mCFTR, sequence (P26361 whole entry): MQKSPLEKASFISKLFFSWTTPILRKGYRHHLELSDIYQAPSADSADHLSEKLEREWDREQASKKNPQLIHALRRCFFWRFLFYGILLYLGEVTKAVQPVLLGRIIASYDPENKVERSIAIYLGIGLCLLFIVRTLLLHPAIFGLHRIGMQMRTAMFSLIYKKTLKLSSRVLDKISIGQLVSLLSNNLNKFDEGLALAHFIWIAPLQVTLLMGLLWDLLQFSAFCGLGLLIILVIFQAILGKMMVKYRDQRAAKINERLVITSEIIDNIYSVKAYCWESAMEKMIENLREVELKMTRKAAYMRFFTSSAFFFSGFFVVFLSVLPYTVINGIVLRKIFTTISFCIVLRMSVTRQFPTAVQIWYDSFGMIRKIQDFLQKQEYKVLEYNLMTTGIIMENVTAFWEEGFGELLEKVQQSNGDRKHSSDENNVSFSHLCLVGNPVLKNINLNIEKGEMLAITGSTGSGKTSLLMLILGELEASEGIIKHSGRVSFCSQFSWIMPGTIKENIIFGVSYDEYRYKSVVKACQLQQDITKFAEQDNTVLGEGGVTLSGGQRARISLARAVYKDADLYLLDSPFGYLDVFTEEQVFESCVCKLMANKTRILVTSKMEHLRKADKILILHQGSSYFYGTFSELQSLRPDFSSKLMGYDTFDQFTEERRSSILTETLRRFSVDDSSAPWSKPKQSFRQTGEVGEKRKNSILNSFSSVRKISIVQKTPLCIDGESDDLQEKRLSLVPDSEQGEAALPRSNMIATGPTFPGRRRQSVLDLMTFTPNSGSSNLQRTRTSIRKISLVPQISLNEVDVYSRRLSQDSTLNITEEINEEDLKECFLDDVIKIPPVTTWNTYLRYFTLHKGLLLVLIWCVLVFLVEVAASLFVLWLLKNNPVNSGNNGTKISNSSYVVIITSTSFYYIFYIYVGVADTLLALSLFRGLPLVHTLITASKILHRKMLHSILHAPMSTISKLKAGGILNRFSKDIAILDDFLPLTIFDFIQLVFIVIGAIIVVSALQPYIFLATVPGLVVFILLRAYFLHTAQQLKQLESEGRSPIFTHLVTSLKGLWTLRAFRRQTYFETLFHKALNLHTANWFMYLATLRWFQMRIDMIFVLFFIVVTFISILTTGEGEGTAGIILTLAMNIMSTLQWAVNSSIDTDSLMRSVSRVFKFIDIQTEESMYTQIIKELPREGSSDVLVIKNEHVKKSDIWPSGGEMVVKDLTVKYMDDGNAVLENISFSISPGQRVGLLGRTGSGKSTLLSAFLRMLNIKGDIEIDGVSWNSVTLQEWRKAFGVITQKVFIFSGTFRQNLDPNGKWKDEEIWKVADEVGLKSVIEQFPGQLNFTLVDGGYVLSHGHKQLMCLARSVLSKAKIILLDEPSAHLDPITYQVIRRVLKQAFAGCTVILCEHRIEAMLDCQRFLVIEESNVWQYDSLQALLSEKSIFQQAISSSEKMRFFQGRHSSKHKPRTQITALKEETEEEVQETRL

Structure (SMILES): O=C(CNc1ccc2ccccc2c1)N/N=C/c1cc(Br)c(O)c(Br)c1O [GlyH-101]
- Potentiation of mCFTR (mCFTR): potentiate

Structure (SMILES): O=C(O)c1cc([N+](=O)[O-])ccc1NCCCc1ccccc1 [NPPB]
- Potentiation of hCFTR (hCFTR; channel incompletely phosphorylated, activated by a low concentration of PKA): potentiate
- Potentiation of hCFTR (hCFTR; extremely high concentrations of NPPB): potentiate

Structure (SMILES): COc1ccc(Cl)cc1C(=O)NCCc1ccc(S(=O)(=O)NC(=O)NC2CCCCC2)cc1 [glibenclamide]
- Potentiation of mCFTR (mCFTR): potentiate

- Inhibition of R352A human CFTR [1]: did not inhibit
- Potentiation of R352A human CFTR [1]: potentiated
- Inhibition of F508del human CFTR (F508del-hCFTR): did not inhibit
- Potentiation of F508del human CFTR (F508del-hCFTR; [3]): potentiated
- Kd ([2]; inhibition component, read-out: Kd of inhibition of WT-hCFTR): 6.1 nM
- Kd ([2]; potentiation component, read-out: Kd of potentiation of WT-hCFTR): 0.64 nM
- Potentiation of WT-hCFTR channels [2, 3]: potentiated
Structure (SMILES): O=C(NCc1ccc(Oc2ccccc2)cc1)c1nc(-c2cc(Br)c(O)c(Br)c2)no1 [iOWH-032, 3-(3,5-dibromo-4-hydroxyphenyl)-N-(4-phenoxybenzyl)-1,2,4-oxadiazole-5-carboxamide]
